For data set [1], the system named is Msm (luc) cells.
Data set [2] deals with Mav strain MAH11. Particulars: 40 h.
Data set [3] concerns Mtb strain mc^26206.

The structures appear in SMILES notation. Values after ≈ are worked out from the molar mass of the structure shown. Like-named read-outs stand apart in the source and are kept apart here. Where a SMILES comes first, the peptide text is derived from it. Bridges are numbered along the chain shown (N, C = ends). [ ]: non-standard residue; d: D form. The star is where a group is joined. NMeT = CN[C@H](C(=O)O)[C@@H](C)O; dNMeL = CN[C@H](CC(C)C)C(=O)O; NMeV = CN[C@H](C(=O)O)C(C)C; X1 = COC(=O)[C@H](N)CS*; X2 = N[C@H](CS*)C(=O)O

For the molecule `O=C(O)[C@H]1CSC(c2nc3ccc(O)cc3s2)=N1` [D-luciferin], in data set [1], the “Luminescence after benzyl alcohol pretreatment” value was “modestly reduced the accumulation” and the “Luminescence after spermidine pretreatment” value is “significant loss of signal”.
For the molecule `CC(=O)N[C@@H](CSSC[C@@H](N)C(=O)O)C(=O)N(C)[C@H](C(=O)N1CCC[C@H]1C(=O)N(C)[C@@H]1C(=O)N[C@@H](CC(C)C)C(=O)N2CCC[C@H]2C(=O)N[C@@H](CC(C)C)C(=O)N(C)[C@@H](C(C)C)C(=O)N2CCC[C@H]2C(=O)N(C)[C@H](CC(C)C)C(=O)NCC(=O)O[C@@H]1C)C(C)C` [cys-GM] (Ac-C(X2)[NMeV]P[NMeT]LPL[NMeV]P[dNMeL]G; ester 4-C), the “MIC Mav” value in data set [2] is more than 32 µM. Also, in data set [3] (strain mc^26206, 40 h), the “MIC Mtb” value is more than 32 µM.
Consider `COC(=O)[C@H](N)CSSC[C@H](NC(C)=O)C(=O)N(C)[C@H](C(=O)N1CCC[C@H]1C(=O)N(C)[C@@H]1C(=O)N[C@@H](CC(C)C)C(=O)N2CCC[C@H]2C(=O)N[C@@H](CC(C)C)C(=O)N(C)[C@@H](C(C)C)C(=O)N2CCC[C@H]2C(=O)N(C)[C@H](CC(C)C)C(=O)NCC(=O)O[C@@H]1C)C(C)C` [cys-ME-GM] (Ac-C(X1)[NMeV]P[NMeT]LPL[NMeV]P[dNMeL]G; ester 4-C), for which the “MIC Mav” value in data set [2] turned out to be 4 µM (≈ 5.29 µg/mL). Further, the “MIC Mtb” value in data set [3] amounted to 2 µM (≈ 2.64 µg/mL).

(Values after article doi:10.1101/2025.11.02.686125v3 (bioRxiv, 2025).)
